Experimental data as given in ChEMBL document CHEMBL1124585, “Iodoaryl analogues of dioctanoylglycerol and 1-oleoyl-2-acetylglycerol as probes for protein kinase C” (J Med Chem, 1989).

Target: Protein kinase C (PKC) (Rattus norvegicus) (UniProt P05696+P68403+P09216+P63319+P09215+Q64617+Q9WTQ0+P09217)
Assay: Activation of protein kinase C
Assay type: protein assay

| Compound | Dose [µM] |
| --- | --- |
| CCCCCCCC(=O)OCC(CO)OC(=O)CCc1cccc(I)c1 (stereo not drawn) | 1 |
| CC(=O)OCC(CO)OC(=O)CCCCCCCCCCCCCCc1cccc(I)c1 (stereo not drawn) | 1 |
| CC(=O)OC(CO)COC(=O)CCCCCCCCCCCCCCc1cccc(I)c1 (stereo not drawn) | 1 |
